Where a SMILES comes first, the peptide text is derived from it.
How the values were obtained:
sCD4 = target: T1, sCD4 (Homo sapiens, UniProt P01730); experiment: Microtiter binding of sCD4-HRP to plate-bound Salp15 and synthetic peptides
T1 construct: the extracellular four domains of CD4 (sCD4); purchased Research Diagnostics Inc., Flanders, N.J., U.S.A
Procedure: Purified sCD4 was coated overnight at 4° C. at the indicated concentrations in 0.1M sodium carbonate buffer (pH 9.5) in 96 well plates. Equimolar amounts of lysozyme were used as a non-specific control. The wells were washed, blocked with 10% FCS/PBS for 1 hr at R.T., and incubated with Salp15 (0.4 μM) for 2 hr at 37° C. Salp15 binding was detected by incubation with horseradish peroxidase (HRP)-conjugated anti-His antibody for 1 hr followed by microwell peroxidase substrate (KPL). The reaction was stopped by adding TMB stop solution (KPL). Chemically synthesized overlapping peptides of Salp15 were purchased from GenScript Corporation (Piscataway, N.J., U.S.A). To study the binding of Salp15 and peptides to sCD4, Salp15 (5 μg) and different peptides (0.5 μg) were coated. The wells were washed and blocked prior to incubation with sCD4-HRP (Research Diagnostics Inc., Flanders, N.J., U.S.A.). For competition assays, indicated concentrations of Salp15 or P11 were added to sCD4-HRP and incubated with plate bound P11 (0.1 μg). To estimate the effect of dithiothreitol (DTT) treatment of Salp15 on binding to sCD4, 0.5 μM Salp15 was treated with 10 mM DTT overnight and immobilized onto microtiter plate followed by blocking and incubation with sCD4-HRP.
Dissociation constants were determined by non-linear curve fit. The results are expressed as the mean±S.E. of 3 to 5 individual experiments.

CD4+ T cells [1] = experiment: IL-2 production (capture ELISA) by CD4+ T cells activated with plate bound anti-CD3 and soluble anti-CD28; type: cell-based, mouse; details: for Inhibition of CD4+ T cell IL-2 production: pretreatment with peptide, 24 hr of activation
Procedure: FIG. 6D is a graph showing purified CD4^+ T cells were activated in vitro with plate bound anti-CD3 and soluble anti-CD28 in the absence or presence of Salp15 (50 μg/mL), P11, or P8. The supernatants were analyzed at 24 hr of activation for IL-2 levels by capture ELISA.
(§1) Naïve CD4+ T cells from C3H/HeN, Balb/c, and B10.BR mice were purified as previously described (Anguita et al., 2002). CD4+ T cells were preincubated in Click's modified Bruff's Medium (Sigma Chemical Co., St. Louis, Mo., U.S.A.) for 10 minutes at 37° C. with and without Salp15 (50 μg/mL) and stimulated for 20 min or the indicated times at 37° C. with 10 μg/mL of anti-CD3ε, 1 μg/mL of anti-CD28, and 10 μg/mL of anti-armenian and syrian hamster IgG (BD Biosciences Pharmingen, San Jose, Calif., U.S.A.). Jurkat (E6-1) cells were stimulated using 5 μg/mL of OKT3 mAb (eBioscience, San Diego, Calif., U.S.A.) and 1 μg/mL of anti-human CD28 cross linked with 5 μg/mL anti-mouse IgG for the indicated times.

CD4+ T cells [2] = experiment: Lipid raft redistribution (CTB594 staining, receptor capping) in activated CD4+ T cells; type: cell-based, mouse; details: pretreatment with peptide 0.2 μg/mL; anti-CD3/CD28 20 min
Procedure: as §1
For the visualization of lipid rafts, phospho-tyrosine, and cytoskeleton reorganization, CD4^+, CD8^+ or Jurkat cells were cytospun for 10 minutes at 1000 RPM onto positively charged microslides (Fisher Scientific, Hampton, N.H., U.S.A.). The cells were fixed with 3.7% paraformaldehyde (Sigma Chemical Co.) for 15 minutes and stained with CTB594 (Molecular Probes, Eugene, Oreg., U.S.A.), AlexaFluor488 labeled phalloidin (Molecular Probes) or (1:50) biotin-conjugated anti-p-Tyr (PY99) followed by Streptavidin-AlexaFluor594 (1:100, Molecular Probes). For p-LAT and p-PLCγ1 staining, fixed cells were treated with PBS containing 0.1% Triton-X 100 and 100 mM glycine for 15 min at room temperature and stained using rabbit p-LAT (Tyr^191) or rabbit anti-p-PLCγ1 (Tyr^783) probed with anti-rabbit IgG488 (Molecular Probes).
For receptor capping studies, mouse primary B and CD11^+ cells were purified by positive selection using biotin anti-mouse CD45R/B220 clone RA3-6B2 and biotin anti-mouse CD11b clone M1/70 (BD Biosciences Pharmingen) respectively, followed by incubation with magnetic microbeads. The cells were analyzed for receptor capping using 25 μg/mL anti-mouse IgM and 25 μg/mL anti-mouse CD16/CD32 respectively, cross-linked with 25 μg/mL of anti-rat IgG594 for 10 min in the presence or absence of 50 μg/mL of Salp15. […]

| Compound | Binding of overlapping synthetic peptides to sCD4 (sCD4; peptides 0.5 μg coated, sCD4-HRP) | Activity for modulating naïve CD4+ T cell activation among the tested polypeptide fragments (CD4+ T cells [1]) | Inhibition of CD4+ T cell IL-2 production (CD4+ T cells [1]) | Lipid rafts clustering in response to T cell activation (CD4+ T cells [2]) | Saturable binding to sCD4 with increasing concentrations (sCD4) |
| --- | --- | --- | --- | --- | --- |
| CC[C@H](C)[C@H](NC(=O)[C@H](Cc1c[nH]cn1)NC(=O)CNC(=O)[C@@H](NC(=O)[C@H](CS)NC(=O)[C@H](CCCCN)NC(=O)[C@H](CC(N)=O)NC(=O)[C@H](CCCCN)NC(=O)[C@H](CCC(=O)O)NC(=O)[C@H](C)NC(=O)[C@H](CS)NC(=O)[C@@H](NC(=O)[C@H](CCC(N)=O)NC(=O)CNC(=O)[C@H](CC(N)=O)NC(=O)[C@@H]1CCCN1C(=O)CN)[C@@H](C)O)C(C)C)C(=O)N1CCC[C@H]1C(=O)NCC(=O)N[C@@H](CS)C(=O)O [Peptide P11] (H-GPNGQTCAEKNKCVGHIPGC-OH; N-terminus and C-terminus assumed) | showed binding | highest activity | dose dependent inhibition | reduction | – |
| EKNKCVGHIPGC (listed as Ixodes scapularis) [Peptide P11-2] | – | highest activity | – | – | saturable binding |
| NCTFLCKHGNDVNVTLNLPE (listed as Ixodes scapularis) [Peptide P8] | – | – | did not exert any inhibition | did not show any effect | no binding |

Reference: patent US8119589B2, “Modulation of CD4+ T cell responses by a tick saliva protein, Salp15 and polypeptides derived therefrom” (University of North Carolina at Charlotte, priority 2004, dated 2012)
